Reference: patent US8735414B2 (priority 2009, dated 2014)

Tests used:
[1] = test system: bicistronic HCV replicon (replicon RNA, GenBank Accession No. AJ242654); assay: HCV Replicon Assay; type: cell-based; conditions: Hepatitis C virus, 72 h, read-out: Replicon IC50

| SMILES | IC50 [1] [µM] | melting point [°C] |
| --- | --- | --- |
| Cc1ccc2c(c1)c(C#N)c(-c1ncc(S(=O)(=O)NC(C)C)cn1)n2C1CCCCC1 [compound 200, 2-(3-cyano-1-cyclohexyl-5-methyl-1H-indol-2-yl)-N-(propan-2-yl)pyrimidine-5-sulfonamide] | 0.5 to 2 | 183 to 188 |
| Cc1ccc2c(C#N)c(-c3ccc(S(=O)(=O)N[C@H](C)C(F)(F)F)cn3)n(C3CCCC3)c2c1 [compound 214, 6-(3-cyano-1-cyclopentyl-6-methyl-1H-indol-2-yl)-N-[(2R)-1,1,1-trifluoropropan-2-yl]pyridine-3-sulfonamide] | < 0.5 | 176 to 182 |
| CCc1cc2c(C#N)c(-c3ccc(S(=O)(=O)N[C@@H](C)C(F)(F)F)cn3)n(C3CCC3)c2cc1OC(F)F [compound 647, 6-[3-cyano-1-cyclobutyl-6-(difluoromethoxy)-5-ethyl-1H-indol-2-yl]-N-[(2S)-1,1,1-trifluoropropan-2-yl]pyridine-3-sulfonamide] | 0.5 to 2 | 160 to 162 |
| Cc1nc(NS(=O)(=O)C(C)(C)C)ccc1-c1c(C(N)=O)c2cc(F)c(OC(F)F)cc2n1C(C)C [compound 1095, 2-{6-[(tert-butylsulfonyl)amino]-2-methylpyridin-3-yl}-6-(difluoromethoxy)-5-fluoro-1-(propan-2-yl)-1H-indole-3-carboxamide] | 0.5 to 2 | 234 to 235 |
| CCc1cc2c(cc1F)c(C(N)=O)c(-c1ccc(S(=O)(=O)N[C@@H](C)C(F)(F)F)cn1)n2-c1ncc(C)cn1 [compound 1047, 6-ethyl-5-fluoro-1-(5-methylpyrimidin-2-yl)-2-(5-{[(2S)-1,1,1-trifluoropropan-2-yl]sulfamoyl}pyridin-2-yl)-1H-indole-3-carboxamide] | 0.5 to 2 | 257 to 261 |
| Cc1c(F)cc2c(C#N)c(-c3ccc(S(=O)(=O)NC(CF)CF)cn3)n(C3CCC3)c2c1F [compound 533, 6-(3-cyano-1-cyclobutyl-5,7-difluoro-6-methyl-1H-indol-2-yl)-N-(1,3-difluoropropan-2-yl)pyridine-3-sulfonamide] | < 0.5 | 158 to 170 |
| Cc1ccc(-n2c(-c3ncc(S(=O)(=O)NC(C)C)cn3)c(C#N)c3cc(F)ccc32)cc1 [compound 357, 2-[3-cyano-5-fluoro-1-(4-methylphenyl)-1H-indol-2-yl]-N-(propan-2-yl)pyrimidine-5-sulfonamide] | < 0.5 | 200 to 202 |
| C[C@@H](NS(=O)(=O)c1ccc(-c2c(C#N)c3ccc(C(F)F)cc3n2C2CCC2)nc1)C(F)(F)F [compound 334, 6-[3-cyano-1-cyclobutyl-6-(difluoromethyl)-1H-indol-2-yl]-N-[(2R)-1,1,1-trifluoropropan-2-yl]pyridine-3-sulfonamide] | < 0.5 | 200 to 206 |
| CCc1cc2c(cc1F)c(C(N)=O)c(-c1ccc(S(=O)(=O)N[C@@H](C)C(F)(F)F)cn1)n2-c1ccc(F)cc1 [compound 1019, 6-ethyl-5-fluoro-1-(4-fluorophenyl)-2-(5-{[(2S)-1,1,1-trifluoropropan-2-yl]sulfamoyl}pyridin-2-yl)-1H-indole-3-carboxamide] | < 0.5 | 210 to 217 |
| Cc1cc2c(cc1F)c(C#N)c(-c1ccc(S(=O)(=O)N[C@@H](C)C(F)(F)F)cn1)n2-c1cnn(C)c1 [compound 1016, 6-[3-cyano-5-fluoro-6-methyl-1-(1-methyl-1H-pyrazol-4-yl)-1H-indol-2-yl]-N-[(2S)-1,1,1-trifluoropropan-2-yl]pyridine-3-sulfonamide] | < 0.5 | 233.7 to 239.3 |
| CC[C@H](NS(=O)(=O)c1ccc(-c2c(C#N)c3cc(F)c(OC(F)F)cc3n2C2CCC2)nc1)C(F)(F)F [compound 738, 6-[3-cyano-1-cyclobutyl-6-(difluoromethoxy)-5-fluoro-1H-indol-2-yl]-N-[(2S)-1,1,1-trifluorobutan-2-yl]pyridine-3-sulfonamide] | < 0.5 | 166 to 173 |
